We go through one compound from patent US20120309798A1, “Tumour Treatment Agents and Method” (Vivolux AB, priority 2009, published 2012).

Like-named read-outs stand apart in the source and are kept apart here. Where only a bound is given, the exact number is not on record here.

Assay [1] deals with AML (Acute Myelocytic Leukemia) patient tumor cells. As to the kind of experiment: FMCA, patient tumor samples, AML. The assay is classed as cell-based. Particulars: Homo sapiens. The text has this: (§1) Cell culture. Patient tumor samples (98) and preparations (4) of normal peripheral blood mononuclear cells (PBMC), detailed in Table 1, were used to determine the activity of VLX50 and, for comparison, six other cytotoxic drugs chosen to represent different mechanistic classes.
(§2) The tumor samples were obtained by bone marrow/peripheral blood sampling, routine surgery or diagnostic biopsy. Leukemic cells and PBMCs were isolated by 1.077 g ml-1 Ficoll-Paque centrifugation (Larsson et al., 1992). Tumor tissue from solid tumor samples was minced into small pieces and tumor cells were isolated by collagenase dispersion followed by Percoll density gradient centrifugation (Csoka et al., 1994). […] Cell viability was determined by trypan blue exclusion test and the proportion of tumor cells in the preparation was judged by inspection of May-Grunvald-Giemsa stained cytospin slides (FIG. 1a). […]
(§3) Fluorometric Microculture Cytotoxicity Assay. The Fluorometric Microculture Cytotoxicity Assay, FMCA, described in detail previously (Lindhagen et al., 2008), is based on measurement of fluorescence generated from hydrolysis of fluorescein diacetate (FDA) to fluorescein by cells with intact plasma membranes. […] Quality criteria for a successful assay included a mean coefficient of variation of less than 30% in the control and a fluorescence signal in control wells of more than 5 times the blank. […]

In assay [2] the test system is Ovarian carcinoma patient tumor cells (PHTC). Put plainly: FMCA, patient tumor samples, ovarian carcinoma. The assay is classed as cell-based, human.
From the text: as §1
The tumor samples were obtained by bone marrow/peripheral blood sampling, routine surgery or diagnostic biopsy. Leukemic cells and PBMCs were isolated by 1.077 g ml-1 Ficoll-Paque centrifugation (Larsson et al., 1992). Tumor tissue from solid tumor samples was minced into small pieces and tumor cells were isolated by collagenase dispersion followed by Percoll density gradient centrifugation (Csoka et al., 1994). The sampling of primary tumor cells was approved by the local ethics committee at Uppsala University Hospital. Cell viability was determined by trypan blue exclusion test and the proportion of tumor cells in the preparation was judged by inspection of May-Grunvald-Giemsa stained cytospin slides (FIG. 1a). All samples used in this study contained more than 70% tumor cells.
Fluorometric Microculture Cytotoxicity Assay. The Fluorometric Microculture Cytotoxicity Assay, FMCA, described in detail previously (Lindhagen et al., 2008), is based on measurement of fluorescence generated from hydrolysis of fluorescein diacetate (FDA) to fluorescein by cells with intact plasma membranes. […] The plates were incubated for 72 h and then transferred to an integrated HTS SAIGAN Core System consisting of an ORCA robot (Beckman Coulter) with CO2 incubator (Cytomat 2C, Kendro, Sollentuna, Sweden), dispensor module (Multidrop 384, Titertek, Huntsville, Ala.), washer module (ELx 405, Bio-Tek Instruments Inc), delidding station, plate hotels, barcode reader (Beckman Coulter), liquid handler (Biomek 2000, Beckman Coulter) and a multipurpose reader (FLUOstar Optima, BMG Labtech GmbH, Offenburg, Germany) for automated FMCA. Quality criteria for a successful assay included a mean coefficient of variation of less than 30% in the control and a fluorescence signal in control wells of more than 5 times the blank. […]

Assay [3] concerns normal peripheral blood mononuclear cells (PBMC). Put plainly: FMCA, normal peripheral blood mononuclear cells. The assay is classed as cell-based. Particulars: Homo sapiens.
From the text: as §1, §2, §3

Another assay has as its system CCRF-CEM cell line. As to the kind of experiment: In vivo hollow fiber assay, CCRF-CEM. The conditions noted are these: CCRF-CEM in fibers s.c. in NMRI male mice, single dose 760 μg/mouse s.c., 6 days; P>0.05. The protocol: In vivo studies. Cells from two ovarian carcinoma patients and the cell line CEM were cultured inside semi-permeable polyvinylidene fluoride fibers and assessed by the hollow fiber assay (Friberg et al., 2005; Jonsson et al., 2000). The fibers were implanted subcutaneously into NMRI male mice (Scanbur, Sollentuna Sweden), which were treated with a single dose (0.76 mg/mouse) of VLX50 subcutaneously, or vehicle only (n=animals/group). Fibers were retrieved after 6 days and cell density evaluated (FIG. 3a) using the MTT (3-[4,5-dimethylthiazol-2-yl]-2,5-diphenyltetrazolium bromide)-assay (Alley et al. 1988). The method is based on the conversion of MTT to blue formazan crystals by living cells. The formazan was extracted by DMSO as previously described (Jonsson et al. 2000), and optical density (OD) read at 570 nm. Cell density for each fiber on retrieval day was expressed as net growth, defined as (OD retrieval day—OD implantation day)/OD implantation day, i.e. the percent change in cell density in the fibers during the 6 days of in vivo experiment. The animals were observed regarding behavior and weight gain throughout the experiment. Blood samples (200 μl) were obtained through the orbital plexus after anesthetization with isofluran just before euthanasia, and analyzed for hematological parameters. […]

Assay [4] relates to intracellular free iron in MCF-7 cells. Put plainly: Measurement of intracellular iron (Phen Green). Particulars: MCF-7, Phen Green fluorescent probe, 100 μM or 500 μM. The assay is classed as cell-based. The text has this: Measurement of intracellular iron. The fluorescent membrane permeable Fe sensor, Phen Green (Invitrogen AB, Göteborg, Sweden) was used to measure changes in intracellular free iron concentration. Fluorescence of the PhenGreen indicators is quenched upon binding Fe^2+ and Fe^3+. The emission intensity of the PhenGreen FL indicator depends on both the metal ion's concentration and the indicator's concentration. MCF-7 cells were harvested and diluted to 500,000 per mL in complete medium, loaded with 10 μM PhenGreen diacetate for 45 minutes and plated to flat-bottomed 96W microtiter plates. The plates were washed ×2 with PBS, resuspended in 180 μl PBS per well and subsequently analyzed by a plate reading fluorometer Fluostar Optima which is programmed to scan fluorescence once a minute for 20 minutes with a break after 5 minutes, during which 20 μl PBS, or VLX50 (100 μM or 500 μM) was added.
Mechanism of action. Mechanistic exploration was performed using gene expression analysis of drug treated tumor cell cultures to generate a drug specific signature. The breast cancer cell line MCF-7 was treated with VLX50 or vehicle (DMSO) and analyzed for gene expression using the Affymetrix U1300plus chip. […] This query signature was subsequently submitted to the GSEA and the Connectivity map databases and strong connections to hypoxia inducible factor (HIF1 alfa) and iron chelators were retrieved. […]

A word on the IC50: it is the concentration that gives 50% inhibition.

As for `COCCCNC(=S)N/N=C\c1ccccn1` [VLX50, N1-(3-methoxypropyl)-2-(pyridylmethylidene)-hydrazine-1-carbothioamide], the IC50 in assay [1] (n=10, 72 h FMCA, read-out: Median IC50) was 5.35 µM; in assay [1] (range over n=10 samples, read-out: IC50 Range), 0.67 to 40 µM; in assay [2] (Homo sapiens, 72 h, n=14, 72 h FMCA, read-out: Median IC50) it was less than 5 µM; in assay [2] (Homo sapiens, range over n=14 samples, read-out: IC50 Range) it was 0.26 to 40 µM; in assay [2] (n=14, 72 h FMCA, read-out: Median IC50), 3.46 µM; in assay [3] (n=4, 72 h FMCA, read-out: Median IC50), 8.92 µM. The IC50 in assay [3] (range over n=4 samples, read-out: IC50 Range) fell in the range of 2.88 to 13.3 µM. Besides, in the assay with CCRF-CEM cell line, the “Difference in net growth between treated group and control group” value is “did not reach statistical significance”. Further, the Intracellular iron concentration entry in assay [4] is on record as “decrease”.
